# How the values were obtained:
# NF-κB = assay: NF-κB-driven luciferase reporter gene assay in DLBCL cells; format: cell-based; details: OCI-Ly10 and U2932; 2 day drug treatment
# Procedure: For the NF-κB-driven luciferase reporter gene assay, cells were transfected with the pGL4.32 [luc2P/NF-κB-RE/Hygro] plasmid (Promega, Madison, Wis.) using Nucleofector kit V and program 013 according to the manufacturer's protocol (Amaxa Biosystems, Gaithersburg, Md.). After 24 hours of transfection, cells were treated with test agents for 2 days and lysates were prepared using the Dual-Glo® Luciferase Assay System (Promega). Luciferase activities of each sample were measured using a TopCount NXT Microplate Scintillation and Luminescence Counter (Packard BioScience).
# To knockdown IRF4, cells were transfected with Silencer® Select siRNA (small interfering RNA, Applied Biosystems) directed against IRF4, CRBN, or Silencer® Select Negative Control siRNAs at a final concentration of 0.2-1 μM using Nucleofector® Kit V for transfection. For IRF4 overexpression, cells were transfected with IRF4- or green fluorescent protein (GFP)-cytomegalovirus (CMV) expression plasmids (OriGene Technologies, Rockville, Md.) for 24 h using the Cell Line Nucleofector kit V as above-mentioned. After 24 hours of transfection, cells were treated with lenalidomide for 2 days before luciferase assay, RT-PCR gene expression analysis and Western blot. […]
# OCI-Ly10 DLBCL cells = assay: OCI-Ly10 human tumor xenograft model; format: in vivo
# Procedure: . A total of 10×10^6 OCI-Ly10 DLBCL cells in 100% Matrigel (Becton Dickinson, San Jose, Calif.) were injected subcutaneously into the right flank of mice. Mice were monitored 2 or 3 times a week for the appearance of tumors. Once the tumors reached an average size of 100-150 mg, 10 mice in each group were treated with either vehicle (0.5% carboxymethyl cellulose: 0.25% Tween 80 in deionized H2O) or indicated doses of lenalidomide (qd×28, p.o.) or the positive control vincristine (q4d×4, i.v.). Mice were monitored daily for health status as well as tumor growth. Tumors of all mice were measured with a digital caliper and volumes calculated with the following formula: tumor volume (mm^3)=length (mm)×width (mm)^2. Mice were killed when tumor size exceeded 1000 mm^3.
# To confirm the relevance of lenalidomide-mediated inhibition of NF-κB/IRF4 signaling in vivo in ABC-DLBCL, a subcutaneous OCI-Ly10 xenograft model was established. […] Compared with vehicle control group, lenalidomide treatment for 7 days reduced IRF4 expression and BCL-10 cleavage by 15-35% (p<0.05).
# H929 cells = assay: Cell cycle progression (cells in S phase) in siRNA-transfected H929 cells; format: cell-based; details: 72 h treatment
# Procedure: The effect of CRBN in H929 cells was also evaluated. H929 cells were transfected with mock, negative control siRNA and CRBN-siRNA-7 for 24, 48, 72 and 96 h. Cells were treated 24 h after transfection with DMSO (0.1%), pomalidomide (1 μM), lenalidomide (10 μM) or 3-(5-amino-2-methyl-4-oxo-4H-quinazolin-3-yl)-piperidine-2,6-dione (“Compound B”) for 1, 2, 3 days and the effect on cell cycle and proliferation investigated. Lenalidomide, pomalidomide and Compound B induced a delay of cell cycle progression, measured as the decrease of the number of cells in S phase, in control mock and negative control siRNA-transfected cells after 72 h treatment (FIG. 2C). Knockdown of CRBN markedly abrogated immunomodulatory drugs-induced delay in cell cycle progression in H929 cells (FIG. 2C) from of 50 to 4% for lenalidomide, from 70 to 15% for pomalidomide, and from 65 to 22% for Compound B.
compound,measurement,setting,value
"Nc1cccc2c1CN(C1CCC(=O)NC1=O)C2=O (stereo not drawn) [lenalidomide, 3-(4-amino-1-oxo-1,3-dihydro-isoindol-2-yl)-piperidine-2,6-dione]",inhibition of transcriptional activity of NF-κB,NF-κB,32-56%
same,tumor size,"OCI-Ly10 DLBCL cells; 3-30 mg/kg po, qdX28, p<0.01",significantly decreased tumor size
same,toxicity based upon mouse weight,OCI-Ly10 DLBCL cells; throughout study,No pronounced toxicity
same,reduction of IRF4 expression and BCL-10 cleavage compared with vehicle control group,"OCI-Ly10 DLBCL cells; treatment for 7 days, p<0.05",15-35%
same,delay in cell cycle progression (decrease of the number of cells in S phase),H929 cells; H929 cells with knockdown of CRBN,4%
same,delay in cell cycle progression (decrease of the number of cells in S phase),H929 cells; control mock and negative control siRNA-transfected H929 cells,50%

# From patent publication US10047151B2, “Methods for the treatment of cancer and inflammatory diseases using cereblon as a predictor” (Celgene Corporation, priority 2011, dated 2018)
